Test results reported in patent publication US20260176320A1, “MODULATORS OF G-PROTEIN COUPLED RECEPTORS” (priority 2018, published 2026).
Like-named read-outs stand apart in the source and are kept apart here. Numbered stars: 1 amine (or outer) side, 2 acyl side, 3 side chain; on linkers, the order of the positions; unused ones are H or OH. Square brackets hold non-standard residues; d marks the D form. Side chains are listed from the residue outwards. Peptide text beside a SMILES is read from it. * marks the point of attachment. X1 = O=C(CSCC(=O)*)NCCN1C(=O)c2ccccc2C1=O; γGlu = O=C(O)[C@H](CCC(=O)[*:2])N[*:1]; X2 = O=C(CSCC(=O)*)NCCN1C(=O)CSC1=O; Palmitoyl = CCCCCCCCCCCCCCCC(=O)*; Aib = CC(C)(N)C(=O)O

How the values were obtained:
GLP-1R = GLP-1R (Homo sapiens, UniProt P43220); assay: HitHunter cAMP assay (GLP-1R); assay type: cell-based; details: cAMP; for Emax: read-out: (Emax) GLP-1R
Procedure, shortened: (§1)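 Cells were resuspended in HBSS plus HEPES, IBMX (625 μM) and BSA, then dispensed with antibody at 10,000 per well. Agonists followed as 22-point twofold series, 30 min at room temperature. Antibody reagent and detection steps ran 1 h and overnight in the dark before luminescence.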

GIP-R = molecular target: T1, GIP-R (Homo sapiens, UniProt P48546); assay: HitHunter cAMP assay (GIP-R); assay type: cell-based; details: cAMP; for Emax: read-out: (Emax) GIP-R
T1 sequence (P48546 22-466): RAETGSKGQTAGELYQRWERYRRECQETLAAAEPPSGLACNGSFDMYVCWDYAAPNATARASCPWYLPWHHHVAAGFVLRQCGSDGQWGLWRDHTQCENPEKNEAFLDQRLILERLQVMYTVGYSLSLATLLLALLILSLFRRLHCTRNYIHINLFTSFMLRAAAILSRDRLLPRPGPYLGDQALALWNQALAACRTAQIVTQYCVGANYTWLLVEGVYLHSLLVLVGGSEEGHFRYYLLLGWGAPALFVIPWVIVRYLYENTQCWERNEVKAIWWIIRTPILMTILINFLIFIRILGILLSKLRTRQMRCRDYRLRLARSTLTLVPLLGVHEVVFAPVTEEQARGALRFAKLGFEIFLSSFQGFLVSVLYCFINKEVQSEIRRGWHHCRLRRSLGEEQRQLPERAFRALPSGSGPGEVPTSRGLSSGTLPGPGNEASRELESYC
Procedure, shortened: as §1

[1] = Table 3A, read-out: EC50 GIP-R/nM
[2] = Table 3, read-out: EC50 GLP-1R/nM
[3] = Table 3A, read-out: EC50 GLP-1R/nM
[4] = Table 3, read-out: EC50 GIP-R/nM

Sequence of GLP-1R (P43220 24-463): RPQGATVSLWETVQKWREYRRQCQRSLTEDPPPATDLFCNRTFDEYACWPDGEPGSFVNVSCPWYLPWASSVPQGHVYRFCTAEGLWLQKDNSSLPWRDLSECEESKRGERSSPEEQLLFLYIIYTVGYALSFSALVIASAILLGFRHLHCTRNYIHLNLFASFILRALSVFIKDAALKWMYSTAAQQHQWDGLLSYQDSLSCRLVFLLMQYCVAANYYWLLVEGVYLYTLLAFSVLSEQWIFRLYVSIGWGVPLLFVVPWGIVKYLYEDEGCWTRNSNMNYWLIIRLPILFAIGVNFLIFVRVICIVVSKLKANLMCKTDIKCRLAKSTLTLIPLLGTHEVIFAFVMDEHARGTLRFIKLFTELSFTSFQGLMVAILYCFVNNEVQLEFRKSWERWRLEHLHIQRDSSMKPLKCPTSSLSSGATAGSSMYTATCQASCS

Row | Structure (SMILES) | Emax (GLP-1R; Table 3A) | Emax (GIP-R; Table 3A) | EC50 (GIP-R; [1]) | EC50 (GLP-1R; EC50 GLP-1R/nM, Table 3A) | EC50 (GIP-R; EC50 GIP-R/nM, Table 3A) | EC50 (GLP-1R; EC50 GLP-1R/nM, Table 3) | Emax (GLP-1R; Table 3) | EC50 (GIP-R; EC50 GIP-R/nM, Table 3) | Emax (GIP-R; Table 3) | EC50 (GLP-1R; [2]) | EC50 (GLP-1R; [3]) | EC50 (GIP-R; [4])
1 | CCCCCCCCCCCCCCCC(=O)N[C@@H](CCC(=O)NCCCC[C@H](NC(=O)[C@H](CO)NC(=O)[C@@H]1CCCN1C(=O)[C@@H]1CCCN1C(=O)[C@@H]1CCCN1C(=O)[C@H](C)NC(=O)CNC(=O)[C@H](CO)NC(=O)[C@H](CO)NC(=O)[C@@H]1CCCN1C(=O)CNC(=O)CNC(=O)[C@H](C)NC(=O)[C@H](CC(C)C)NC(=O)[C@H](CC(C)C)NC(=O)[C@H](Cc1c[nH]c2ccccc12)NC(=O)[C@H](CC(N)=O)NC(=O)[C@@H](NC(=O)[C@H](Cc1ccccc1)NC(=O)[C@H](CCC(=O)O)NC(=O)C(C)(C)NC(=O)[C@H](C)NC(=O)[C@H](C)NC(=O)[C@H](CCC(N)=O)NC(=O)[C@H](CCCCN)NC(=O)[C@H](CC(=O)O)NC(=O)[C@H](CC(C)C)NC(=O)[C@H](Cc1ccc(O)cc1)NC(=O)[C@@H](NC(=O)[C@H](CO)NC(=O)[C@H](Cc1ccc(O)cc1)NC(=O)[C@H](CC(=O)O)NC(=O)[C@H](CO)NC(=O)[C@@H](NC(=O)[C@H](Cc1ccccc1)NC(=O)[C@@H](NC(=O)CNC(=O)[C@H](CCC(=O)O)NC(=O)CCNC(=O)CCN1CCCCCC1=O)[C@@H](C)O)[C@@H](C)O)[C@@H](C)CC)C(C)C)C(N)=O)C(=O)O [Compound 267] | 100% | 40% | 10 to 100 nM | – | – | – | – | – | – | – | – | –
2 | CCCCCCCCCCCCCCCC(=O)N[C@@H](CCC(=O)NCCCC[C@H](NC(=O)[C@H](CO)NC(=O)[C@@H]1CCCN1C(=O)[C@@H]1CCCN1C(=O)[C@@H]1CCCN1C(=O)[C@H](C)NC(=O)CNC(=O)[C@H](CO)NC(=O)[C@H](CO)NC(=O)[C@@H]1CCCN1C(=O)CNC(=O)CNC(=O)[C@H](C)NC(=O)[C@H](CC(C)C)NC(=O)[C@H](CC(C)C)NC(=O)[C@H](Cc1c[nH]c2ccccc12)NC(=O)[C@H](CC(N)=O)NC(=O)[C@@H](NC(=O)[C@H](Cc1ccccc1)NC(=O)[C@H](CCC(=O)O)NC(=O)C(C)(C)NC(=O)[C@H](C)NC(=O)[C@H](C)NC(=O)[C@H](CCC(N)=O)NC(=O)[C@H](CCCCN)NC(=O)[C@H](CC(=O)O)NC(=O)[C@H](CC(C)C)NC(=O)[C@H](Cc1ccc(O)cc1)NC(=O)[C@@H](NC(=O)[C@H](CO)NC(=O)[C@H](Cc1ccc(O)cc1)NC(=O)[C@H](CC(=O)O)NC(=O)[C@H](CO)NC(=O)[C@@H](NC(=O)[C@H](Cc1ccccc1)NC(=O)[C@@H](NC(=O)CNC(=O)[C@H](CCC(=O)O)NC(=O)CSCC(=O)NCCN1C(=O)[C@@H]2CC[C@H]1C2)[C@@H](C)O)[C@@H](C)O)[C@@H](C)CC)C(C)C)C(N)=O)C(=O)O [Compound 291] | 100% | 60% | – | 0.1 to 1 nM | 1 to 10 nM | – | – | – | – | – | – | –
3 | CC[C@H](C)[C@H](NC(=O)[C@H](CO)NC(=O)[C@H](Cc1ccc(O)cc1)NC(=O)[C@H](CC(=O)O)NC(=O)[C@H](CO)NC(=O)[C@@H](NC(=O)[C@H](Cc1ccccc1)NC(=O)[C@@H](NC(=O)CNC(=O)[C@H](CCC(=O)O)NC(=O)CSCC(=O)NCCN1C(=O)c2ccccc2C1=O)[C@@H](C)O)[C@@H](C)O)C(=O)N[C@@H](Cc1ccc(O)cc1)C(=O)N[C@@H](CC(C)C)C(=O)N[C@@H](CC(=O)O)C(=O)N[C@@H](CCCCN)C(=O)N[C@@H](CCC(N)=O)C(=O)N[C@@H](C)C(=O)N[C@@H](C)C(=O)NC(C)(C)C(=O)N[C@@H](CCC(=O)O)C(=O)N[C@@H](Cc1ccccc1)C(=O)N[C@H](C(=O)N[C@@H](CCC(=O)O)C(=O)N[C@@H](Cc1c[nH]c2ccccc12)C(=O)N[C@@H](CC(C)C)C(=O)N[C@@H](CC(C)C)C(=O)N[C@@H](C)C(=O)NCC(=O)NCC(=O)N1CCC[C@H]1C(=O)N[C@@H](CO)C(=O)N[C@@H](CO)C(=O)NCC(=O)N[C@@H](C)C(=O)N1CCC[C@H]1C(=O)N1CCC[C@H]1C(=O)N1CCC[C@H]1C(=O)N[C@@H](CO)C(=O)N[C@@H](CCCCN)C(N)=O)C(C)C [Compound 149] (X1-EGTFTSDYSIYLDKQAA[Aib]EFVEWLLAGGPSSGAPPPSK-NH2) | 86 to 92% | 113% | – | 1 to 10 nM | < 0.1 nM | 1 to 10 nM | 86 to 92% | < 0.1 nM | 113% | – | – | –
4 | CCCCCCCCCCCCCCCC(=O)N[C@@H](CCC(=O)NCCCC[C@H](NC(=O)[C@H](CO)NC(=O)[C@@H]1CCCN1C(=O)[C@@H]1CCCN1C(=O)[C@@H]1CCCN1C(=O)[C@H](C)NC(=O)CNC(=O)[C@H](CO)NC(=O)[C@H](CO)NC(=O)[C@@H]1CCCN1C(=O)CNC(=O)CNC(=O)[C@H](C)NC(=O)[C@H](CC(C)C)NC(=O)[C@H](CC(C)C)NC(=O)[C@H](Cc1c[nH]c2ccccc12)NC(=O)[C@H](CC(N)=O)NC(=O)[C@@H](NC(=O)[C@H](Cc1ccccc1)NC(=O)[C@H](CCC(=O)O)NC(=O)C(C)(C)NC(=O)[C@H](C)NC(=O)[C@H](C)NC(=O)[C@H](CCC(N)=O)NC(=O)[C@H](CCCCN)NC(=O)[C@H](CC(=O)O)NC(=O)[C@H](CC(C)C)NC(=O)[C@H](Cc1ccc(O)cc1)NC(=O)[C@@H](NC(=O)[C@H](CO)NC(=O)[C@H](Cc1ccc(O)cc1)NC(=O)[C@H](CC(=O)O)NC(=O)[C@H](CO)NC(=O)[C@@H](NC(=O)[C@H](Cc1ccccc1)NC(=O)[C@@H](NC(=O)CNC(=O)[C@H](CCC(=O)O)NC(=O)CSCC(=O)NCCN1C(=O)CC(N)C1=O)[C@@H](C)O)[C@@H](C)O)[C@@H](C)CC)C(C)C)C(N)=O)C(=O)O (mixture of isomers) [Compound 67] | 100% | 65% | 1 to 10 nM | – | – | – | 100% | – | 65% | 0.1 to 1 nM | 0.1 to 1 nM | 1 to 10 nM
5 | CCCCCCCCCCCCCCCC(=O)N[C@@H](CCC(=O)NCCCC[C@H](NC(=O)[C@H](CO)NC(=O)[C@@H]1CCCN1C(=O)[C@@H]1CCCN1C(=O)[C@@H]1CCCN1C(=O)[C@H](C)NC(=O)CNC(=O)[C@H](CO)NC(=O)[C@H](CO)NC(=O)[C@@H]1CCCN1C(=O)CNC(=O)CNC(=O)[C@H](C)NC(=O)[C@H](CC(C)C)NC(=O)[C@H](CC(C)C)NC(=O)[C@H](Cc1c[nH]c2ccccc12)NC(=O)[C@H](CC(N)=O)NC(=O)[C@@H](NC(=O)[C@H](Cc1ccccc1)NC(=O)[C@H](CCC(=O)O)NC(=O)C(C)(C)NC(=O)[C@@H](NC(=O)[C@H](C)NC(=O)[C@H](CCC(N)=O)NC(=O)[C@H](CCCCN)NC(=O)[C@H](CC(=O)O)NC(=O)[C@H](CC(C)C)NC(=O)[C@H](Cc1ccc(O)cc1)NC(=O)[C@@H](NC(=O)[C@H](CO)NC(=O)[C@H](Cc1ccc(O)cc1)NC(=O)[C@H](CC(=O)O)NC(=O)[C@H](CO)NC(=O)[C@@H](NC(=O)[C@H](Cc1ccccc1)NC(=O)[C@@H](NC(=O)CNC(=O)[C@H](CCC(=O)O)NC(=O)CSCC(=O)NCCN1C(=O)CSC1=O)[C@@H](C)O)[C@@H](C)O)[C@@H](C)CC)C(C)C)C(C)C)C(N)=O)C(=O)O [Compound 80] (X2-EGTFTSDYSIYLDKQAV[Aib]EFVNWLLAGGPSSGAPPPSK([γGlu-Palmitoyl])-NH2) | 92% | 73% | 1 to 10 nM | – | – | – | 92% | – | 73% | 0.1 to 1 nM | 0.1 to 1 nM | 1 to 10 nM
6 | CC[C@H](C)[C@H](NC(=O)[C@H](CO)NC(=O)[C@H](Cc1ccc(O)cc1)NC(=O)[C@H](CC(=O)O)NC(=O)[C@H](CO)NC(=O)[C@@H](NC(=O)[C@H](Cc1ccccc1)NC(=O)[C@@H](NC(=O)CNC(=O)[C@H](CCC(=O)O)NC(=O)CSCC(=O)NCCN1C(=O)CC(C)CC1=O)[C@@H](C)O)[C@@H](C)O)C(=O)N[C@@H](Cc1ccc(O)cc1)C(=O)N[C@@H](CC(C)C)C(=O)N[C@@H](CC(=O)O)C(=O)N[C@@H](CCCCN)C(=O)N[C@@H](CCC(N)=O)C(=O)N[C@@H](C)C(=O)N[C@@H](C)C(=O)NC(C)(C)C(=O)N[C@@H](CCC(=O)O)C(=O)N[C@@H](Cc1ccccc1)C(=O)N[C@H](C(=O)N[C@@H](CC(N)=O)C(=O)N[C@@H](Cc1c[nH]c2ccccc12)C(=O)N[C@@H](CC(C)C)C(=O)N[C@@H](CC(C)C)C(=O)N[C@@H](C)C(=O)NCC(=O)NCC(=O)N1CCC[C@H]1C(=O)N[C@@H](CO)C(=O)N[C@@H](CO)C(=O)NCC(=O)N[C@@H](C)C(=O)N1CCC[C@H]1C(=O)N1CCC[C@H]1C(=O)N1CCC[C@H]1C(=O)N[C@@H](CO)C(=O)N[C@@H](CCCCN)C(N)=O)C(C)C [Compound 113] | 89% | 52% | – | 10 to 100 nM | 10 to 100 nM | 10 to 100 nM | 89% | 10 to 100 nM | 52% | – | – | –
